# Source: patent publication US10639345B2, “Compositions for preserving photoreceptor cells, retinal pigment epithelial cells, or visual function” (Massachusetts Eye and Ear Infirmary, priority 2010, dated 2020)
# Where a SMILES comes first, the peptide text is derived from it. The star is where a group is joined. Cbz = O=C(OCc1ccccc1)*; CH2F = FC*
# Columns and labels:
# [1] = test system: photoreceptors; assay: Poly I:C-induced dry AMD model, TUNEL-positive cells in ONL; assay type: in vivo, mice; conditions: compared with vehicle
# From the text: In this example, the mechanism of photoreceptor cell death in dry AMD was investigated using a polyinosinic:polycytidylic acid (Poly I:C)-induced dry AMD model (Yang et al. (2009) NEJM 359(14):1456-63). Poly I:C is a synthetic double-stranded RNA (dsRNA) analog that activates toll-like receptor 3 (TLR3) signaling (FIG. 20A). Furthermore, dsRNA are known to exist in the drusen of human AMD patients. As depicted in FIG. 20A, activation of the TLR3 signaling results in activation of RIP-1 kinase pathway. […] In the experiments described herein, 2-3 μl of Poly I:C (1 mg/ml) was injected into the subretinal space of the eye (e.g., approximately 2-3 μg of Poly I:C was administered to the eye) to induce AMD.
# The thickness of the ONL was determined by the National Institutes of Health ImageJ software. […] Specifically, the number of TUNEL-positive cells in the RIP-3−/− mice treated with poly I:C was at least three fold less than control mice consistent with RIP-3 playing a role in mediating programmed necrosis in AMD (FIG. 22B).
# To determine the effect of Nec-1 and a pan-caspase inhibitor in the treatment of AMD, TUNEL assay was performed to assess photoreceptor cell death in the poly I:C induced AMD model. […] The thickness of ONL was also measured.
# [2] = test system: photoreceptors; assay: TUNEL-positive photoreceptors in ONL after experimental retinal detachment; assay type: in vivo, rat; conditions: day three after retinal detachment; subretinal Z-VAD 300 μM and/or Nec-1 400 μM at detachment
compound,measurement,setting,value
"COC(=O)CC(NC(=O)C(C)NC(=O)C(NC(=O)OCc1ccccc1)C(C)C)C(=O)CF (stereo not drawn) [Z-VAD, Benzyloxycarbonyl-Val-Ala-Asp(OMe)-fluoromethylketone] (Cbz-Val-Ala-Asp(OMe)-CH2F; configuration not given here)",number of TUNEL-positive cells in ONL,[1],slight effect
same,number of TUNEL-positive cells in the ONL,[2],1134.7±297.5 cells/mm^2
